Experimental data reported in ChEMBL document CHEMBL4804281, “STK4 inhibitors for treatment of hematologic malignancies” (2020).

How the values were obtained:
[1] = biological target: Misshapen-like kinase 1 (Homo sapiens) (UniProt Q8N4C8); experiment: Inhibition of MINK in human NCI-H929 cells at 10 uM by mass spectroscopic analysis relative to control; assay type: cell-based
[2] = biological target: DNA-dependent protein kinase catalytic subunit (Homo sapiens) (UniProt P78527); experiment: Inhibition of DNAPK in human NCI-H929 cells at 10 uM by mass spectroscopic analysis relative to control; assay type: cell-based
[3] = biological target: Tyrosine-protein kinase ABL1 (Homo sapiens) (UniProt P00519); experiment: Inhibition of ABL in human NCI-H929 cells at 10 uM by mass spectroscopic analysis relative to control; assay type: cell-based
[4] = biological target: T1, Tyrosine-protein kinase receptor TYRO3 (Homo sapiens) (UniProt Q06418); experiment: Inhibition of TYRO3 in human NCI-H929 cells at 10 uM by mass spectroscopic analysis relative to control; assay type: cell-based
T1 sequence (whole entry): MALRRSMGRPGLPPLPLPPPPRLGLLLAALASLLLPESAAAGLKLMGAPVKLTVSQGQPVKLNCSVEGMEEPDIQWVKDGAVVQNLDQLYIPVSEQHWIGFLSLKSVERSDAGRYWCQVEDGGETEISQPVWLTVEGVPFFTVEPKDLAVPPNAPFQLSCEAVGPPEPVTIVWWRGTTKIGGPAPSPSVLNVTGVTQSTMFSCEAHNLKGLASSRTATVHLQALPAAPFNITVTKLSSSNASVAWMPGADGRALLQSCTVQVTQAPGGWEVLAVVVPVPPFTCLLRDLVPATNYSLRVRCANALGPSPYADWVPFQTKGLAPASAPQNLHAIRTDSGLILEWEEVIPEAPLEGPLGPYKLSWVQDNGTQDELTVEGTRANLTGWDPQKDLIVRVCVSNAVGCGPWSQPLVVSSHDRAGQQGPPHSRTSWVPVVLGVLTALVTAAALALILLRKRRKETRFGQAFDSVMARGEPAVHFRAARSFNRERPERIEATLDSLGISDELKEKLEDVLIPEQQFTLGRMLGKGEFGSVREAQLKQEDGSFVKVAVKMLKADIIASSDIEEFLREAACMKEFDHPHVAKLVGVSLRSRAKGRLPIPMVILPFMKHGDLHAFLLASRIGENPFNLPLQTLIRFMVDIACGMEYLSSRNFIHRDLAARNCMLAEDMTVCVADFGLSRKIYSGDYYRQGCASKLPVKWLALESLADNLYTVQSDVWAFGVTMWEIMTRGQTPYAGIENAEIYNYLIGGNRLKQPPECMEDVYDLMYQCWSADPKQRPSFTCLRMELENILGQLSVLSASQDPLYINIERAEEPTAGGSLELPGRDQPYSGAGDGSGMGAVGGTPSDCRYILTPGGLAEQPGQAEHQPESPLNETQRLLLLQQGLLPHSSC

[5] = biological target: Dual specificity mitogen-activated protein kinase kinase 2 (Homo sapiens) (UniProt P36507); experiment: Inhibition of MAP2K2 in human NCI-H929 cells at 10 uM by mass spectroscopic analysis relative to control; assay type: cell-based
[6] = biological target: Cyclin-dependent kinase 18 (Homo sapiens) (UniProt Q07002); experiment: Inhibition of PCTAIRE3 in human NCI-H929 cells at 10 uM by mass spectroscopic analysis relative to control; assay type: cell-based
[7] = biological target: T2, TGF-beta receptor type-1 (Homo sapiens) (UniProt P36897); experiment: Inhibition of TGFBR1 in human NCI-H929 cells at 10 uM by mass spectroscopic analysis relative to control; assay type: cell-based
T2 sequence (whole entry): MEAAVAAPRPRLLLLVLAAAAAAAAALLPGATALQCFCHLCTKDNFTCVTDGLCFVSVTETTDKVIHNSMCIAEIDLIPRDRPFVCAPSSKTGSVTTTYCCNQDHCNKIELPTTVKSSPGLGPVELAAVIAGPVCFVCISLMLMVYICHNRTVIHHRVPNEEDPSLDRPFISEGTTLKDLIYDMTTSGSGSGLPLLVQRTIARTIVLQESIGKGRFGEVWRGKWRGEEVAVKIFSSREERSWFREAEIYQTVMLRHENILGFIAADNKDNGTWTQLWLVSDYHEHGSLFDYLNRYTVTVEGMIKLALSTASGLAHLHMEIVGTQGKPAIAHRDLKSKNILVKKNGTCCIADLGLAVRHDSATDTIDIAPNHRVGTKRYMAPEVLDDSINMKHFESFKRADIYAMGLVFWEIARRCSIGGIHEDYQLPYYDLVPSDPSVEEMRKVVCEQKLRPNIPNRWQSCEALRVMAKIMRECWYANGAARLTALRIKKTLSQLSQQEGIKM

[8] = biological target: Ribosomal protein S6 kinase alpha-2 (Homo sapiens) (UniProt Q15349); experiment: Inhibition of RSK3 domain 1 in human NCI-H929 cells at 10 uM by mass spectroscopic analysis relative to control; assay type: cell-based
[9] = biological target: Cyclin-dependent kinase 17 (Homo sapiens) (UniProt Q00537); experiment: Inhibition of PCTAIRE2 in human NCI-H929 cells at 10 uM by mass spectroscopic analysis relative to control; assay type: cell-based
[10] = biological target: Cyclin-dependent kinase 11B (Homo sapiens) (UniProt P21127); experiment: Inhibition of PITSLRE in human NCI-H929 cells at 10 uM by mass spectroscopic analysis relative to control; assay type: cell-based
[11] = biological target: T3, Serine/threonine-protein kinase 3 (Homo sapiens) (UniProt Q13188); experiment: Inhibition of STK3 (unknown origin) using fluorescein-labelled Ser/Thr-07 peptide as substrate incubated for 1 hr in presence of ATP at Km concentration by Z-LYTE assay
T3 sequence (whole entry): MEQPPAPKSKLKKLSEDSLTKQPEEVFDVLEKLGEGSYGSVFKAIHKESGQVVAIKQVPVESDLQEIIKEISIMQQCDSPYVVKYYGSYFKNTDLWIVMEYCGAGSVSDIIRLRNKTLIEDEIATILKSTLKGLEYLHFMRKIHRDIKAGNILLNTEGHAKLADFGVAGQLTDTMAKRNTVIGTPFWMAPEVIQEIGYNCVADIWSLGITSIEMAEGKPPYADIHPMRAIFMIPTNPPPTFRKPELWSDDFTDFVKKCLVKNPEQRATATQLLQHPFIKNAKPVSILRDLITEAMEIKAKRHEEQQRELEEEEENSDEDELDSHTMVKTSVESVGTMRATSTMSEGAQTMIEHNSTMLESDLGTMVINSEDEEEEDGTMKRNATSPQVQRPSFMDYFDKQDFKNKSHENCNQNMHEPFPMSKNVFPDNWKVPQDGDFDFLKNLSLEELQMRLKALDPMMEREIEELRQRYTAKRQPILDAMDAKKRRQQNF

[12] = biological target: RAC-beta serine/threonine-protein kinase (Homo sapiens) (UniProt P31751); experiment: Inhibition of AKT2 in human NCI-H929 cells at 10 uM by mass spectroscopic analysis relative to control; assay type: cell-based
[13] = biological target: Rho-associated protein kinase 2 (Homo sapiens) (UniProt O75116); experiment: Inhibition of ROCK2 in human NCI-H929 cells at 10 uM by mass spectroscopic analysis relative to control; assay type: cell-based
[14] = biological target: Serine/threonine-protein kinase 25 (Homo sapiens) (UniProt O00506); experiment: Inhibition of YSK1 in human NCI-H929 cells at 10 uM by mass spectroscopic analysis relative to control; assay type: cell-based

Sequence of RAC-beta serine/threonine-protein kinase (Homo sapiens) (P31751 whole entry): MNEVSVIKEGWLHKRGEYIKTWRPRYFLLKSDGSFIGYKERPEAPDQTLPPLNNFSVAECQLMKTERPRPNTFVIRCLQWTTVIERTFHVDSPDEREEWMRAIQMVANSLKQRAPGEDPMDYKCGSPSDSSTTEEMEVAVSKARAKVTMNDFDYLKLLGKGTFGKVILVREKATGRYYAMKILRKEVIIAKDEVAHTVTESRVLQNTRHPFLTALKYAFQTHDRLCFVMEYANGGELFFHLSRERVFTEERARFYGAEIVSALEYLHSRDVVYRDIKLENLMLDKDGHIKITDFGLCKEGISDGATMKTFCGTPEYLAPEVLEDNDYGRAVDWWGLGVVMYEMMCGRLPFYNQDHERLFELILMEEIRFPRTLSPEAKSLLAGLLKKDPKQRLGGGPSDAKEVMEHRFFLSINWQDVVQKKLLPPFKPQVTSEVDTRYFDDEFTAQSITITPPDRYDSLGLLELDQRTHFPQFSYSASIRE
Sequence of Rho-associated protein kinase 2 (Homo sapiens) (O75116 whole entry, looked up): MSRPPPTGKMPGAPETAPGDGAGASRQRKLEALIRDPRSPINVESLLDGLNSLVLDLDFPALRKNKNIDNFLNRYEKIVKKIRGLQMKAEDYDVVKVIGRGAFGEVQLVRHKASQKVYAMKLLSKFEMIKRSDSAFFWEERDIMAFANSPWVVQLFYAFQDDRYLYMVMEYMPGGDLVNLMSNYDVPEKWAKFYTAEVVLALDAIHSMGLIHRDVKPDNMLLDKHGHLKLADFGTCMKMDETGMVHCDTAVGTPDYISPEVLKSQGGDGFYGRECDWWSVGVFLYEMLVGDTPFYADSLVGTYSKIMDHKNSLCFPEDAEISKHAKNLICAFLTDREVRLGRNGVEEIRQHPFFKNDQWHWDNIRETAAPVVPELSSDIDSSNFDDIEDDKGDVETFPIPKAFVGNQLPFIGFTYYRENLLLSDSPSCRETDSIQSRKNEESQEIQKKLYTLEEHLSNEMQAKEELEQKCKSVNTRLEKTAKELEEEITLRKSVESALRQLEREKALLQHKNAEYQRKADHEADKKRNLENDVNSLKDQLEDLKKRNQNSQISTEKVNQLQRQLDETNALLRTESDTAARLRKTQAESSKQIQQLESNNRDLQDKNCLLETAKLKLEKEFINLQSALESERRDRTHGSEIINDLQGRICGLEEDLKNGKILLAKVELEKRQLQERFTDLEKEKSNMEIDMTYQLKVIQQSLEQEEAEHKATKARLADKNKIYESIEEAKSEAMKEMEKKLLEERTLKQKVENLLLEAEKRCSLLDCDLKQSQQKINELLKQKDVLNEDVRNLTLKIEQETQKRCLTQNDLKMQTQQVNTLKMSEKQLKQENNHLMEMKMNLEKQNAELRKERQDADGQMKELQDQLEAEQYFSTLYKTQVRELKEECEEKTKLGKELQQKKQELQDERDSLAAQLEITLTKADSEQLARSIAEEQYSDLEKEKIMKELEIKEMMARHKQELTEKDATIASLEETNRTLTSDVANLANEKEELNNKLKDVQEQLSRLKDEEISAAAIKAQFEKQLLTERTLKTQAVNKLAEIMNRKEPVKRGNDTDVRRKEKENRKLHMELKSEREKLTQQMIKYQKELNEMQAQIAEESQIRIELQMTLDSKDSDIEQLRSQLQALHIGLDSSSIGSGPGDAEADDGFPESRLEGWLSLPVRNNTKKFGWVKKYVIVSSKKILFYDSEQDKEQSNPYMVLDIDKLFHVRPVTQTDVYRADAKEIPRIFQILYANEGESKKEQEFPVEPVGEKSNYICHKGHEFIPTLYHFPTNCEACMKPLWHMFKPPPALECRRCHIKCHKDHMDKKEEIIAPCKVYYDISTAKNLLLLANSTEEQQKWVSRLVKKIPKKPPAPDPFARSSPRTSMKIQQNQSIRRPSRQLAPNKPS
Sequence of Cyclin-dependent kinase 17 (Homo sapiens) (Q00537 whole entry, looked up): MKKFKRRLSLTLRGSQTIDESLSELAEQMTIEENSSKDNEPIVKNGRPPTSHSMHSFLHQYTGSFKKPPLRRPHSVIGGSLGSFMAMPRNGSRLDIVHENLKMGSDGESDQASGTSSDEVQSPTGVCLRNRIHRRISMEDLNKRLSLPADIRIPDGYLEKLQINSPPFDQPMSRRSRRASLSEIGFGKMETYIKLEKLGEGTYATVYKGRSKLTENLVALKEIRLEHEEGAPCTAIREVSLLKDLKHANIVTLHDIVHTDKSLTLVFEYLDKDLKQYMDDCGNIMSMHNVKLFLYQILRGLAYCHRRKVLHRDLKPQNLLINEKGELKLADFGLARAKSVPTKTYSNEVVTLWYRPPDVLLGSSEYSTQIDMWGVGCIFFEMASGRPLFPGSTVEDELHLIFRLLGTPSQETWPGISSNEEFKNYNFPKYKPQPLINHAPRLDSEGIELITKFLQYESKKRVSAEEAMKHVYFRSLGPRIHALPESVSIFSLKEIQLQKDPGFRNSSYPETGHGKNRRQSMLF
Sequence of Tyrosine-protein kinase ABL1 (Homo sapiens) (P00519 whole entry): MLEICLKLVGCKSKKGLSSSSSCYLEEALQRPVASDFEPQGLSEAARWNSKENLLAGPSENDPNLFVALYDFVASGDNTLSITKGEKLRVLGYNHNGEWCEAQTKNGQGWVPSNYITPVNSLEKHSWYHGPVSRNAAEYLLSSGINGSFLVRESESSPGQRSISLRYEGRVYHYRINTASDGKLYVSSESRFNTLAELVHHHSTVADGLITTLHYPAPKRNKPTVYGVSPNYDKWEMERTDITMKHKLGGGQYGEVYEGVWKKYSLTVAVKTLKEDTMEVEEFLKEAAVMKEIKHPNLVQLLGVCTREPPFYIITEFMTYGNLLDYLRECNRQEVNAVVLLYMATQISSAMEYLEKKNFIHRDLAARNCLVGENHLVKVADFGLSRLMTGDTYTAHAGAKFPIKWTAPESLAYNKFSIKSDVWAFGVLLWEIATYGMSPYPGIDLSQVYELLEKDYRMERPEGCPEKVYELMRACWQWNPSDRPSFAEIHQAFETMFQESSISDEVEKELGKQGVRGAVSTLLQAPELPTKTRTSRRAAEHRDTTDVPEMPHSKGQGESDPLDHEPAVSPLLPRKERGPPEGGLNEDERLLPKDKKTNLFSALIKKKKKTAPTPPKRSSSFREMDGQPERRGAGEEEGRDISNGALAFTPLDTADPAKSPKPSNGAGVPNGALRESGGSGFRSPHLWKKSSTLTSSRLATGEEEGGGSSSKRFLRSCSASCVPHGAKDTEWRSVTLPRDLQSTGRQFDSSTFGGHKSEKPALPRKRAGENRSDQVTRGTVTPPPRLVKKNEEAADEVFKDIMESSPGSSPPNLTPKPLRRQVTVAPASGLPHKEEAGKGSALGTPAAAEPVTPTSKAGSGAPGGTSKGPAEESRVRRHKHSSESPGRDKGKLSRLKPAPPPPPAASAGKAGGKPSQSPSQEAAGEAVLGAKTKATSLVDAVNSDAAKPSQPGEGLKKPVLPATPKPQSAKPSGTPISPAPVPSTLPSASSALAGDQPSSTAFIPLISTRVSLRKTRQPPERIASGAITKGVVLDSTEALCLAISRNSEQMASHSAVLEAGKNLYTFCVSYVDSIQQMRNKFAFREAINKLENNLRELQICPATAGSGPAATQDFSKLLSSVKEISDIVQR
Sequence of Cyclin-dependent kinase 11B (Homo sapiens) (P21127 whole entry): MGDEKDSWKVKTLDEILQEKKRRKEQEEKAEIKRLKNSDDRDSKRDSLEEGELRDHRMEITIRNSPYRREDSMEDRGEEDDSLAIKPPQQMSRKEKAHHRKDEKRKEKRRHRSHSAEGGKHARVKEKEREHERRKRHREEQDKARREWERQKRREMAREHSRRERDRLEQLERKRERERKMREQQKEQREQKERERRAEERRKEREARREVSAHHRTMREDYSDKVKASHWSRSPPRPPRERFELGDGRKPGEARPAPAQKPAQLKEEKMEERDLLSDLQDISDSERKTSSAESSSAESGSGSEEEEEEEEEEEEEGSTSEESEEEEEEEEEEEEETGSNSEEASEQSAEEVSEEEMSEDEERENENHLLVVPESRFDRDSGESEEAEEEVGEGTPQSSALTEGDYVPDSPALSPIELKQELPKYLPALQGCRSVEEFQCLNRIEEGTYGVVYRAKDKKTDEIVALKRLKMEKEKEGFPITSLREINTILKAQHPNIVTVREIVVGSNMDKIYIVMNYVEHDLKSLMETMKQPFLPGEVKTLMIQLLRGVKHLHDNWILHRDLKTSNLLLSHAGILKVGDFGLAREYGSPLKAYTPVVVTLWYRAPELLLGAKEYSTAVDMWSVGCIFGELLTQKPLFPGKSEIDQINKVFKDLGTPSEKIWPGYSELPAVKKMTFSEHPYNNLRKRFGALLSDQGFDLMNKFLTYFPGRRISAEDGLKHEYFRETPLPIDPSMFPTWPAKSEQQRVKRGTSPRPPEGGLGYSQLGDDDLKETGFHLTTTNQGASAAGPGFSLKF
Sequence of Cyclin-dependent kinase 18 (Homo sapiens) (Q07002 whole entry): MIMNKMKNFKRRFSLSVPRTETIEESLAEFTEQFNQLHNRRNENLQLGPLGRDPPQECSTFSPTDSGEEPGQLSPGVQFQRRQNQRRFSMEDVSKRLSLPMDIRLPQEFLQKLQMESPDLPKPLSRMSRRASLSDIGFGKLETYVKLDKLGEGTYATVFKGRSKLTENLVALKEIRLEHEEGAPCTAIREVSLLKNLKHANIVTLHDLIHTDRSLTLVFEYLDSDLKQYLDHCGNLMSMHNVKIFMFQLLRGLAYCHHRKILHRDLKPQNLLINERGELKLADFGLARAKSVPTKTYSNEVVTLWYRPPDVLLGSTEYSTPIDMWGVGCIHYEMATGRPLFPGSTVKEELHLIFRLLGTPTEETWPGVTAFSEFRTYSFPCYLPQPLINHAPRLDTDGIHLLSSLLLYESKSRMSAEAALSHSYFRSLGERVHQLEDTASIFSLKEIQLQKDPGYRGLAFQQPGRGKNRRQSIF

inhibition [1] [%]	inhibition [2] [%]	inhibition [3] [%]	inhibition [4] [%]	inhibition [5] [%]	inhibition [6] [%]	inhibition [7] [%]	inhibition [8] [%]	inhibition [9] [%]	inhibition [10] [%]	IC50 [11] [µM]	inhibition [12] [%]	inhibition [13] [%]	inhibition [14] [%]	Structure (SMILES)
50	0	0	0	0	0	> 90	50	0	0	–	–	–	–	Nc1ncc(-c2ccc(NS(=O)(=O)C3CC3)cc2OC2CCCCC2)cc1-c1ccc2c(c1)CCNC2=O
> 90	< 75	50	–	–	–	–	0	–	0	0.04	0	0	0	Nc1ncc(-c2cccc3ncsc23)cc1-c1ccc2c(c1)CCNC2=O
50	–	0	0	0	0	75	0	0	0	–	–	–	0	COc1cc(NS(=O)(=O)C2CC2)ccc1-c1cnc(N)c(-c2ccc3c(c2)CCNC3=O)c1
> 90	< 90	0	–	–	–	–	0	–	0	< 0.04	0	0	< 90	CN(C1CC1)S(=O)(=O)c1ccc(-c2cnc(N)c(-c3ccc4c(c3)CCNC4=O)c2)c(F)c1
> 90	–	–	–	–	–	–	–	–	–	< 0.04	0	0	0	Nc1ncc(-c2cccc([N+](=O)[O-])c2F)cc1-c1ccc2c(c1)CCNC2=O
–	0	0	0	0	0	0	0	0	0	–	–	–	< 75	Nc1ncc(-c2ccc(NS(=O)(=O)C3CC3)cc2F)cc1-c1ccc2c(c1)CCNC2=O
